{"source": "patent US9669051B2", "about": "“Dietary fiber compositions with metformin, sitagliptin, or a combination thereof for the treatment of metabolic disease” (Inovobiologic Inc., priority 2012, dated 2017)", "key": {"Zucker FA/FA Rat Model [1]": {"tested_on": "Zucker FA/FA Rat Model", "assay": "Example 7: body weight and food consumption", "type": "in vivo", "method": "44 young adult (9 week old) male rats (Zucker ZDF/Crl-Lepr^fa/fa), were obtained from Charles River Laboratories, Kingston, N.Y. […] The rats were housed in cages which conformed to size standards in Guide for the Care and Use of Laboratory Animals (Nat'l Res. Council, 1996). Bedding was changed at least twice per week. The animals were maintained at a temperature range of 18-22° C., humidity 44-68%, and a photoperiod of 12 hour light/dark cycle. The rats were acclimated for 4 days prior to the start of the study. Each animal was given a sequential number and was uniquely identified with a stainless steel ear tag or other appropriate, permanent method. Morbidity and mortality checks were carried out twice daily during the study. The animals were randomly assigned to one of four groups: (1) Control 5% cellulose fiber/chow [C]; (2) 5% PGX/chow [PGX]; […] Filtered tap water was available ad libitum. The test diets were nearly isoenergetic (PGX diet provided 3.98 kcal/g and cellulose diet provided 3.90 kcal/g). […] Sitagliptin was administered in the morning, with samples and data collected after treatment."}, "Zucker FA/FA Rat Model [2]": {"tested_on": "Zucker FA/FA Rat Model", "assay": "Example 7: body composition by dual-energy X-ray absorptiometry (DEXA)", "type": "in vivo", "method": "Body composition was measured using dual-energy X-ray absorptiometry (DEXA) of the carcasses at the end of the study (i.e., after a limited necropsy for histopathology samples). The primary endpoints were fat mass, lean mass and bone mineral density. Tissue composition (i.e., % body fat) and fat free mass were also reported, but the information on these measurements was redundant with other measures."}, "Zucker FA/FA Rat Model [3]": {"tested_on": "Zucker FA/FA Rat Model", "assay": "Example 7: non-fasted and 16 h fasted blood glucose", "type": "in vivo", "procedure": "Glucose concentrations were determined using a hand-held glucose meter (e.g., Bayer Asencia Elite). Blood was collected via tail nick following sitagliptin administration; one sample was collected when food was available for the previous 24 hours (non-fasted), and one sample was collected on another day when food was not available overnight (16 h fasted)."}, "Zucker FA/FA Rat Model [4]": {"tested_on": "Zucker FA/FA Rat Model", "assay": "Example 7: hemoglobin glycosylation (HbA1c)", "type": "in vivo", "procedure": "The extent of hemoglobin glycosylation was determined using a clinical analyzer (e.g., Bayer DCA2000). Blood samples for analysis were collected via tail nick."}, "Zucker FA/FA Rat Model [5]": {"tested_on": "Zucker FA/FA Rat Model", "assay": "Example 7: fasted oral glucose tolerance test (OGTT), glucose and serum insulin", "type": "in vivo", "conditions": "week 6, 16 h fasted", "excerpt": "The remainder of the sample was allowed to clot, and centrifuged to separate serum. Serum samples were frozen for insulin analysis."}, "Zucker FA/FA Rat Model [6]": {"tested_on": "Zucker FA/FA Rat Model", "assay": "Example 7: lipid determinations", "type": "in vivo", "conditions": "finding in words, with reference to the cellulose control; listed as JANUVIA alone", "method": "(§1) A blood sample was collected via retroorbital bleed (under isoflurane anesthesia) during the takedown phase. A portion of this sample was tested for lipid concentrations (total, LDL, and HDL cholesterol and triglycerides) using an analyzer (e.g., Polymer Technology Systems CardioChek PA). Plasma was separated by centrifugation and flash-frozen for DPPIV activity determination. The remainder was prepared for comprehensive clinical chemistry analysis."}, "Zucker FA/FA Rat Model [7]": {"tested_on": "Zucker FA/FA Rat Model", "assay": "Example 7: clinical chemistry of terminal blood sample", "type": "in vivo", "method": "as §1"}, "Zucker FA/FA Rat Model [8]": {"tested_on": "Zucker FA/FA Rat Model", "assay": "Example 7: necropsy histopathology of liver, kidney and pancreas", "type": "in vivo", "conditions": "week 7 necropsy", "method": "Rats were fasted overnight and given their regular sitagliptin treatment in the morning. Following the in-life procedures, rats were anesthetized with isoflurane, and a blood sample was collected via cardiac puncture. No peptidase inhibitors were used. Following sample collection, a limited necropsy was performed. A section of ileum (approximately one inch, collected one inch rostral to the cecum) was rinsed in chilled saline and flash frozen; this sample was analyzed for DPPIV mRNA. One kidney was flash-frozen for DPPIV mRNA analysis; one liver lobe was flash frozen for DPPIV activity and mRNA analysis. The pancreas (collected as a pancreatic pluck, with associated tissue including the remainder of the intestine), one liver lobe and one kidney were post-fixed for staining with hematoxylin and eosin. One liver lobe was snap-frozen for staining with Sudan Black. The tissue samples were forwarded to Histo-Scientific Research Laboratories Inc. (Mount Jackson, Va.) for histological processing and for pathological evaluation by a board-certified pathologist. The pathology analysis was based on the gross and microscopic evaluation of the liver (two lobes), right kidney and pancreas from 39 male rats."}, "[9]": {"conditions": "in words; cited from earlier work"}, "[10]": {"conditions": "finding in words, with reference to the cellulose control, listed as JANUVIA alone"}, "[11]": {"conditions": "finding in words, with reference to the cellulose control"}}}
{"smiles": "N[C@@H](CC(=O)N1CCn2c(nnc2C(F)(F)F)C1)Cc1cc(F)c(F)cc1F", "note": "[Cellulose-JANUVIA, (R)-4-oxo-4-[3-(trifluoromethyl)-5,6-dihydro[1,2,4]triazolo[4,3-a]pyrazin-7(8H)-yl]-1-(2,4,5-trifluorophenyl)butan-2-amine]", "values": [{"measurement": "Baseline body weight", "setting": "Zucker FA/FA Rat Model [1]; Baseline", "value": "297.9 ± 3.7", "unit": "g"}, {"measurement": "Mean food consumption", "setting": "Zucker FA/FA Rat Model [1]; averaged for each rat over the study", "value": "22.9 ± 0.7", "unit": "g/day"}, {"measurement": "Week 7 body weight", "setting": "Zucker FA/FA Rat Model [1]; week 7", "value": "411.0 ± 16.1", "unit": "g"}, {"measurement": "Fat free mass", "setting": "Zucker FA/FA Rat Model [2]; DEXA at end of study", "value": "133.0 ± 5.6", "unit": "g"}, {"measurement": "Tissue composition (% fat)", "setting": "Zucker FA/FA Rat Model [2]; DEXA at end of study", "value": "63.3 ± 0.9", "unit": "% fat"}, {"measurement": "Lean Mass (terminal)", "setting": "Zucker FA/FA Rat Model [2]; [10]", "value": "did not show an effect on lean body mass"}, {"measurement": "16 h fasted blood glucose", "setting": "Zucker FA/FA Rat Model [3]; Baseline", "value": "98.4 ± 5.4", "unit": "mg/dL"}, {"measurement": "Non-fasted blood glucose", "setting": "Zucker FA/FA Rat Model [3]; Baseline", "value": "231.8 ± 31.2", "unit": "mg/dL"}, {"measurement": "16 h fasted blood glucose", "setting": "Zucker FA/FA Rat Model [3]; Week 6", "value": "331.1 ± 16.4", "unit": "mg/dL"}, {"measurement": "Non-fasted blood glucose", "setting": "Zucker FA/FA Rat Model [3]; Week 6", "value": "500.9 ± 17.4", "unit": "mg/dL"}, {"measurement": "Hemoglobin glycosylation", "setting": "Zucker FA/FA Rat Model [4]; Baseline", "value": "4.4 ± 0.1", "unit": "%"}, {"measurement": "Hemoglobin glycosylation", "setting": "Zucker FA/FA Rat Model [4]; Week 6", "value": "6.8 ± 0.4", "unit": "%"}, {"measurement": "OGTT serum insulin Baseline", "setting": "Zucker FA/FA Rat Model [5]; before glucose", "value": "6.6 ± 1.1", "unit": "ng/mL"}, {"measurement": "OGTT blood glucose Baseline", "setting": "Zucker FA/FA Rat Model [5]; before glucose 1 g/kg PO", "value": "331 ± 16.4", "unit": "mg/dL"}, {"measurement": "OGTT serum insulin AUC(0-120), baseline-subt", "setting": "Zucker FA/FA Rat Model [5]; glucose 1 g/kg PO", "value": "-3.0 ± 22.7", "unit": "ng·h/dL"}, {"measurement": "total cholesterol (week 7)", "setting": "Zucker FA/FA Rat Model [6]", "value": "not effective to lower blood cholesterol"}, {"measurement": "Serum ALT/SGPT (terminal)", "setting": "Zucker FA/FA Rat Model [7]; [11]", "value": "tended to decrease ALT activity"}, {"measurement": "Serum albumin (terminal)", "setting": "Zucker FA/FA Rat Model [7]; [11]", "value": "did not increase albumin concentrations"}, {"measurement": "Serum alkaline phosphatase (terminal)", "setting": "Zucker FA/FA Rat Model [7]; [11]", "value": "significantly reduced alkaline phosphatase activity"}, {"measurement": "total serum protein (terminal)", "setting": "Zucker FA/FA Rat Model [7]; [11]", "value": "did not increase total protein concentrations"}, {"measurement": "blood urea nitrogen (terminal)", "setting": "Zucker FA/FA Rat Model [7]; [10]", "value": "tended to decrease BUN"}, {"measurement": "Calcium", "setting": "Zucker FA/FA Rat Model [7]; terminal blood sample, week 7", "value": "11.2 ± 0.2", "unit": "mg/dL"}, {"measurement": "Creatine kinase", "setting": "Zucker FA/FA Rat Model [7]; terminal blood sample, week 7", "value": "76.3 ± 12.8", "unit": "IU/L"}, {"measurement": "Phosphorus", "setting": "Zucker FA/FA Rat Model [7]; terminal blood sample, week 7", "value": "6.0 ± 0.2", "unit": "mg/dL"}, {"measurement": "Kidney: degeneration/regeneration, tubules, group incidence", "setting": "Zucker FA/FA Rat Model [8]; animals affected/examined", "value": "9/9"}, {"measurement": "Kidney: dilatation, tubules, group incidence", "setting": "Zucker FA/FA Rat Model [8]; animals affected/examined", "value": "9/9"}, {"measurement": "Kidney: dilation, renal pelvis, group incidence", "setting": "Zucker FA/FA Rat Model [8]; animals affected/examined", "value": "9/9"}, {"measurement": "Kidney: inflammation, renal pelvis, group incidence", "setting": "Zucker FA/FA Rat Model [8]; animals affected/examined", "value": "2/9"}, {"measurement": "Kidney: mesangial expansion, group incidence", "setting": "Zucker FA/FA Rat Model [8]; animals affected/examined", "value": "9/9"}, {"measurement": "Kidney: mineralization, renal pelvis, group incidence", "setting": "Zucker FA/FA Rat Model [8]; animals affected/examined", "value": "2/9"}, {"measurement": "Liver: Sudan black positive hepatocytes, group incidence", "setting": "Zucker FA/FA Rat Model [8]; animals affected/examined", "value": "9/9"}, {"measurement": "Liver: cystic hepatocytes degeneration with fibrosis, group incidence", "setting": "Zucker FA/FA Rat Model [8]; animals affected/examined", "value": "1/9"}, {"measurement": "Liver: hepatic focal infarction, group incidence", "setting": "Zucker FA/FA Rat Model [8]; animals affected/examined", "value": "1/9"}, {"measurement": "Liver: vacuolation, hepatocytes, macrovesicular, group incidence", "setting": "Zucker FA/FA Rat Model [8]; animals affected/examined", "value": "7/9"}, {"measurement": "Liver: vacuolation, hepatocytes, microvesicular, group incidence", "setting": "Zucker FA/FA Rat Model [8]; animals affected/examined", "value": "9/9"}, {"measurement": "Pancreas: fibrosis, islets, group incidence", "setting": "Zucker FA/FA Rat Model [8]; animals affected/examined", "value": "9/9"}, {"measurement": "Pancreas: hemorrhage/hemosiderin, islets, group incidence", "setting": "Zucker FA/FA Rat Model [8]; animals affected/examined", "value": "9/9"}, {"measurement": "Pancreas: hypertrophy, islets, group incidence", "setting": "Zucker FA/FA Rat Model [8]; animals affected/examined", "value": "9/9"}, {"measurement": "Pancreas: islet cell degeneration, group incidence", "setting": "Zucker FA/FA Rat Model [8]; animals affected/examined", "value": "9/9"}, {"measurement": "Pancreas: mononuclear cell infiltrate, islets, group incidence", "setting": "Zucker FA/FA Rat Model [8]; animals affected/examined", "value": "9/9"}, {"measurement": "Pancreas: percent of islet area containing positive insulin positive cells", "setting": "Zucker FA/FA Rat Model [8]; group average", "value": 40, "unit": "%"}, {"measurement": "Liver: Sudan black positive hepatocytes, group average score", "setting": "Zucker FA/FA Rat Model [8]; score 0-5", "value": 2.8}, {"measurement": "Kidney: degeneration/regeneration, tubules, group average score", "setting": "Zucker FA/FA Rat Model [8]; severity score 0-5", "value": 2.3}, {"measurement": "Kidney: dilatation, tubules, group average score", "setting": "Zucker FA/FA Rat Model [8]; severity score 0-5", "value": 2.8}, {"measurement": "Kidney: dilation, renal pelvis, group average score", "setting": "Zucker FA/FA Rat Model [8]; severity score 0-5", "value": 2.3}, {"measurement": "Kidney: inflammation, renal pelvis, group average score", "setting": "Zucker FA/FA Rat Model [8]; severity score 0-5", "value": 0.8}, {"measurement": "Kidney: mesangial expansion, group average score", "setting": "Zucker FA/FA Rat Model [8]; severity score 0-5", "value": 2.1}, {"measurement": "Kidney: mineralization, renal pelvis, group average score", "setting": "Zucker FA/FA Rat Model [8]; severity score 0-5", "value": 0.2}, {"measurement": "Liver: cystic hepatocytes degeneration with fibrosis, group average score", "setting": "Zucker FA/FA Rat Model [8]; severity score 0-5", "value": 0.1}, {"measurement": "Liver: hepatic focal infarction, group average score", "setting": "Zucker FA/FA Rat Model [8]; severity score 0-5", "value": 0.2}, {"measurement": "Liver: vacuolation, hepatocytes, macrovesicular, group average score", "setting": "Zucker FA/FA Rat Model [8]; severity score 0-5", "value": 0.9}, {"measurement": "Liver: vacuolation, hepatocytes, microvesicular, group average score", "setting": "Zucker FA/FA Rat Model [8]; severity score 0-5", "value": 2.6}, {"measurement": "Pancreas: fibrosis, islets, group average score", "setting": "Zucker FA/FA Rat Model [8]; severity score 0-5", "value": 2.1}, {"measurement": "Pancreas: hemorrhage/hemosiderin, islets, group average score", "setting": "Zucker FA/FA Rat Model [8]; severity score 0-5", "value": 1.1}, {"measurement": "Pancreas: hypertrophy, islets, group average score", "setting": "Zucker FA/FA Rat Model [8]; severity score 0-5", "value": 3.8}, {"measurement": "Pancreas: islet cell degeneration, group average score", "setting": "Zucker FA/FA Rat Model [8]; severity score 0-5", "value": 1.4}, {"measurement": "Pancreas: mononuclear cell infiltrate, islets, group average score", "setting": "Zucker FA/FA Rat Model [8]; severity score 0-5", "value": 1.0}]}
{"smiles": "N[C@@H](CC(=O)N1CCn2c(nnc2C(F)(F)F)C1)Cc1cc(F)c(F)cc1F", "note": "[Sitagliptin phosphate monohydrate, 7-[(3R)-3-amino-1-oxo-4-(2,4,5-trifluorophenyl)buty]-5,6,7,8-tetrahydro-3-(trifluoromethyl)-1,2,4-triazolo[4,3-a]pyrazine phosphate (1:1) monohydrate]", "values": [{"measurement": "Solubility in water", "setting": "[9]", "value": "soluble in water"}]}
